Assay results from US20170349532A1, “CATIONIC LIPID” (Kyowa Hakko Kirin Co., Ltd., priority 2011, published 2017).

Assay: Average particle diameter of preparation (Zetasizer Nano ZS)
Assay type: physicochemical
Details: Comparative Examples 1 to 8, prepared as Example 118 with apo-b siRNA
Text: Preparations were produced using the compounds obtained in Examples 1 to 117, as follows.
APO-B siRNA was used as the nucleic acid. APO-B siRNA suppresses expression of an apolipoprotein-B (hereinafter, “apo-b”) gene and has a sense strand with the base sequence 5′-GmUCAmUCACACmUGAAmUACCAAmU-3′ (the sugars attached to the bases appended with m are 2′-O-methyl-substituted riboses), and an antisense strand with the base sequence 5′-[…]-3′ (the 5′-end is phosphorylated). The sense strand and the antisense strand were obtained from Nippon EGT, GeneDesign, Inc., Invitrogen or Hokkaido System Science Co., Ltd., and annealed to prepare the nucleic acid (hereinafter, “apo-b siRNA”).
A solution comprising the constituent components was prepared by dissolving each of the weighed samples in 90 vol % ethanol in 8.947/1.059/5.708/13.697 mmol/L [compounds 1 to 117 obtained in Examples 1 to 117/sodium 1,2-dimyristoyl-sn-glycero-3-phosphoethanolamine-N-(methoxy(polyethylene glycol)-2000) (PEG-DMPE Na,N-(carbonylmethoxypolyethylene glycol 2000)-1,2-dimyristoyl-sn-glycero-3-phosphoethanolamine sodium salt, NOF Corporation)/distearoylphosphatidyl choline (DSPC, 1,2-distearoyl-sn-glycero-3-phosphocholine, NOF Corporation)/cholesterol (Avanti Polar Lipids)]. Separately, apo-b siRNA/distilled water (24 mg/mL) was diluted with a Tris-EDTA buffer (200 mM Tris-HCl, 20 mM EDTA, Invitrogen) and a 20 mM citric acid buffer (pH 5.0) to prepare a 1.5 mg/mL apo-b siRNA aqueous solution (2 mM Tris-EDTA/20 mM citric acid buffer, pH 5.0).
The resulting lipid solution was heated to 37° C., and a 100-μL portion was transferred to a preparation container. The apo-b siRNA aqueous solution (100 μL) was then added thereto while being stirred. Then, a 20 mM citric acid buffer (containing 300 mM NaCl, pH 6.0; 200 μL) was added to the lipid nucleic acid mixed suspension (200 μL) while being stirred. The siRNA concentration was brought to 10 μM by dropping a Dulbecco phosphate buffer (DPBS, Invitrogen; 662 μL), and preparations (compositions comprising compounds 1 to 117 and the nucleic acid) were obtained.
The average particle diameter of the complex between the cationic lipis and the nucleic acid in each preparation was measured with a particle diameter measurement device (Malvern; Zetasizer Nano ZS).

Going from `CCCCCCCC/C=C\CCCCCCCC(=O)OCCN(C)CCOC(=O)CCCCCCC/C=C\CCCCCCCC` [Compound A-6, N-Methyl-N,N-bis(2-((Z)-1-oxooctadec-9-enyloxy)ethyl)amine, reference compound] to `CCCCCCCC/C=C\CCCCCCCC(=O)O[C@@H]1CN(C)C[C@H]1OC(=O)CCCCCCC/C=C\CCCCCCCC` [Compound A-4, (3R,4R)-1-Methylpyrrolidine-3,4-diyl di((Z)-octadec-9-enoate), reference compound], the “average particle diameter of the complex between the cationic lipis and the nucleic acid in the preparation” value falls from 139.5 nm to 131.1 nm.

Going from `CCCCCCCC/C=C\CCCCCCCCO[C@@H]1CN(Cc2ccccc2)C[C@H]1OCCCCCCCC/C=C\CCCCCCCC` [Compound VI-4, (3R,4R)-1-Benzyl-3,4-bis((Z)-octadec-9-enyloxy)pyrrolidine, reference compound] to `CCCCC/C=C\C/C=C\CCCCCCCC(=O)O[C@@H]1CN(C)C[C@H]1OC(=O)CCCCCCC/C=C\C/C=C\CCCCC` [Compound A-3, (3R,4R)-1-Methylpyrrolidine-3,4-diyl di((9Z,12Z)-octadec-9,12-dienoate), reference compound], the “average particle diameter of the complex between the cationic lipis and the nucleic acid in the preparation” value falls from 157.8 nm to 141.0 nm.

Same assay, conditions: average particle diameter of cationic lipid/nucleic acid complex; Example 118 preparation: compound/PEG-DMPE Na/DSPC/cholesterol with apo-b siRNA

First: CCCCCCCC/C=C\CCCCCCCCCCO[C@@H]1CNC[C@H]1OCCCCCCCCCC/C=C\CCCCCCCC [Compound 42, (3R,4R)-3,4-bis((Z)-Icos-11-enyloxy)pyrrolidine]
Second: CCCCCC/C=C\CCCCCCCCO[C@@H]1CNC[C@H]1OCCCCCCCC/C=C\CCCCCC [Compound 6, (3R,4R)-3,4-bis((Z)-Hexadec-9-enyloxy)pyrrolidine]
The “Particle diameter of Preparetion” value of the first is lower: 131.3 nm for the first, 140.3 nm for the second.

Going from `CCCCCCCCCCCCCCCCCCO[C@@H]1CN(C)C[C@H]1OCCCCCCCCCCCCCCCCCC` [Compound 46, (3R,4R)-1-Methyl-3,4-bis(octadecyloxy)pyrrolidine] to `CCCCCCCCCCCCCCCCCCOCCN(C)CCOCCCCCCCCCCCCCCCCCC` [Compound 37, N-Methyl-N,N-bis(2-(octadecyloxy)ethyl)amine], the “Particle diameter of Preparetion” value falls from 192.0 nm to 151.3 nm.

Compared with `CCCCCCCC/C=C\CCCCCCCCOCCN(CCOCCCCCCCC/C=C\CCCCCCCC)C(=O)[C@@H](N)CCCN` [Compound 93, (S)-2,5-Diamino-N,N-bis(2-((Z)-octadec-9-enyloxy)ethyl)pentanamido], `CCCCCCCC/C=C\CCCCCCCCOCCN(CCOCCCCCCCC/C=C\CCCCCCCC)C(=O)[C@@H](N)CO` [Compound 91, (S)-2-Amino-3-hydroxy-N,N-bis(2-((Z)-octadec-9-enyloxy)ethyl)propanamido] is lower in “Particle diameter of Preparetion” value: 135.1 nm for the first, 125.4 nm for the second.

First: CCCCCC/C=C\CCCCCCCCOCCN(C)CCOCCCCCCCC/C=C\CCCCCC [Compound 35, N-Methyl-N,N-bis(2-((Z)-hexadec-9-enyloxy)ethyl)amine]
Second: CCCCCCCC/C=C\CCCCCCCCOCCN(CCOCCCCCCCC/C=C\CCCCCCCC)C(=O)CN [Compound 86, 2-Amino-N,N-bis(2-((Z)-octadec-9-enyloxy)ethyl)acetamide]
The “Particle diameter of Preparetion” value of the first is lower: 126.5 nm for the first, 128.4 nm for the second.

Going from `CCCCC/C=C\C/C=C\CCCCCCCCO[C@@H]1CN(C)C[C@H]1OCCCCCCCC/C=C\C/C=C\CCCCC` [Compound 10, (3R,4R)-1-Methyl-3,4-bis((9Z,12Z)-octadec-9,12-dienyloxy)pyrrolidine] to `CCCCC/C=C\C/C=C\CCCCCCCCO[C@H]1CN(C)C[C@H]1OCCCCCCCC/C=C\C/C=C\CCCCC` [Compound 11, (3R,4S)-1-Methyl-3,4-bis((9Z,12Z)-octadec-9,12-dienyloxy)pyrrolidine], the “Particle diameter of Preparetion” value falls from 153.9 nm to 135.8 nm.

Compared with `CCCCC/C=C\C/C=C\CCCCCCCCO[C@H]1CNC[C@@H]1OCCCCCCCC/C=C\C/C=C\CCCCC` (stereo in doubt) [Compound 43, (3S,4S)-3,4-bis((9Z,12Z)-Octadec-9,12-dienyloxy)pyrrolidine], `CCCCC/C=C\C/C=C\CCCCCCCCO[C@@H]1CNC[C@H]1OCCCCCCCC/C=C\C/C=C\CCCCC` [Compound 1, (3R,4R)-3,4-bis((9Z,12Z)-Octadec-9,12-dienyloxy)pyrrolidine] is lower in “Particle diameter of Preparetion” value: 150.0 nm for the first, 137.4 nm for the second.

First: CCCCCC/C=C\CCCCCCCCCCO[C@@H]1CN(C)C[C@H]1OCCCCCCCCCC/C=C\CCCCCC [Compound 48, (3R,4R)-1-Methyl-3,4-bis((Z)-octadec-11-enyloxy)pyrrolidine]
Second: CCCC/C=C\CCCCCCCCO[C@@H]1CN(C)C[C@H]1OCCCCCCCC/C=C\CCCC [Compound 47, (3R,4R)-1-Methyl-3,4-bis((Z)-tetradec-9-enyloxy)pyrrolidine]
The “Particle diameter of Preparetion” value of the first is higher: 135.0 nm for the first, 125.8 nm for the second.

Compared with `CCCCC/C=C\C/C=C\CCCCCCCCOC[C@@H]1C[N+](C)(C)C[C@H]1COCCCCCCCC/C=C\C/C=C\CCCCC.[Cl-]` (relative stereo) [Compound 112, trans-1,1-Dimethyl-3,4-bis(((9Z,12Z)-octadec-9,12-dienyloxy)methyl)pyrrolidinium chloride], `CCCCC/C=C\C/C=C\CCCCCCCCO[C@H]1C[N+](C)(C)C[C@@H]1OCCCCCCCC/C=C\C/C=C\CCCCC` [Compound 52, (3S,4S)-1,1-Dimethyl-3,4-bis((9Z,12Z)-octadec-9,12-dienyloxy)pyrrolidinium chloride] is lower in “Particle diameter of Preparetion” value: 119.2 nm for the first, 118.9 nm for the second.

First: CCCCCCCC/C=C\CCCCCCCC(=O)OCCN(CCOC(=O)CCCCCCC/C=C\CCCCCCCC)C(=O)CN(C)C [Compound 98, 2-(Dimethylamino)-N,N-bis(2-((Z)-octadec-9-enoyloxy)ethyl)acetamide]
Second: CCCCCCCC/C=C\CCCCCCCC(=O)OCCN(CCOC(=O)CCCCCCC/C=C\CCCCCCCC)CC(O)CO (stereo not shown) [Compound 83, 3-(bis(2-((Z)-Octadec-9-enoyloxy)ethyl)amino)propan-1,2-diol]
The “Particle diameter of Preparetion” value of the first is lower: 124.1 nm for the first, 169.1 nm for the second.

Compared with `CCCCC/C=C\C/C=C\CCCCCCCCO[C@@H]1CN(CC)C[C@H]1OCCCCCCCC/C=C\C/C=C\CCCCC` [Compound 17, (3R,4R)-1-Ethyl-3,4-bis((9Z,12Z)-octadec-9,12-dienyloxy)pyrrolidine], `CCCCC/C=C\C/C=C\CCCCCCCCO[C@@H]1CN(CC(C)O)C[C@H]1OCCCCCCCC/C=C\C/C=C\CCCCC` (stereo partly drawn) [Compound 54, 1-((3R,4R)-3,4-bis((9Z,12Z)-Octadec-9,12-dienyloxy)pyrrolidine-1-yl)propan-2-ol] is higher in “Particle diameter of Preparetion” value: 142.6 nm for the first, 148.9 nm for the second.

First: CCCCC/C=C\C/C=C\CCCCCCCCCCOC[C@@H]1CN(C(=O)[C@@H](N)CCCCN)C[C@H]1COCCCCCCCCCC/C=C\C/C=C\CCCCC [Compound 115, trans-1-((S)-2,6-Diaminohexanoyl)-3,4-bis(((11Z,14Z)-icos-11,14-dienyloxy)methyl)pyrrolidine]
Second: CCCCCC/C=C\CCCCCCCCOC[C@@H]1CN(C)C[C@H]1COCCCCCCCC/C=C\CCCCCC (relative stereo) [Compound 51, trans-3,4-bis(((Z)-Hexadec-9-enyloxy)methyl)-1-methylpyrrolidine]
The “Particle diameter of Preparetion” value of the first is higher: 152.8 nm for the first, 123.9 nm for the second.

First: CCCC/C=C\CCCCCCCCO[C@@H]1CNC[C@H]1OCCCCCCCC/C=C\CCCC [Compound 40, (3R,4R)-3,4-bis((Z)-Tetradec-9-enyloxy)pyrrolidine]
Second: CCCCC/C=C\C/C=C\CCCCCCCCCCO[C@@H]1CNC[C@H]1OCCCCCCCCCC/C=C\C/C=C\CCCCC [Compound 8, (3R,4R)-3,4-bis((11Z,14Z)-Icos-11,14-dienyloxy)pyrrolidine]
The “Particle diameter of Preparetion” value of the first is lower: 133.8 nm for the first, 143.8 nm for the second.

First: CCCCC/C=C\C/C=C\CCCCCCCCO[C@@H]1CN(C(=O)CN)C[C@H]1OCCCCCCCC/C=C\C/C=C\CCCCC [Compound 61, (3R,4R)-1-(2-Aminoacetyl)-3,4-bis((9Z,12Z)-octadec-9,12-dienyloxy)pyrrolidine]
Second: CCCCC/C=C\C/C=C\CCCCCCCCO[C@@H]1CN(CC(O)COC)C[C@H]1OCCCCCCCC/C=C\C/C=C\CCCCC (stereo partly drawn) [Compound 55, 1-(3R,4R)-3,4-bis(((9Z,12Z)-Octadec-9,12-dienyloxy)pyrrolidine-1-yl)-3-methoxypropan-2-ol]
The “Particle diameter of Preparetion” value of the first is lower: 125.9 nm for the first, 139.6 nm for the second.

In the case of `CCCCCCCC/C=C\CCCCCCCC(=O)O[C@@H]1CN(C(=O)CN(C)C)C[C@H]1OC(=O)CCCCCCC/C=C\CCCCCCCC` [Compound 27, (3R,4R)-1-(2-(Dimethylamino)acetyl)pyrrolidine-3,4-diyl di((Z)-octadec-9-enoate)], the “Particle diameter of Preparetion” value was 135.2 nm.
